Reference: PubChem BioAssay AID2060488 (Molecular Pharmacology Branch, DTP, NCI, 2025)

System: 966289-007-R4-J1-PDC complex spheroid viability
Assay: Anticancer human tumor 966289-007-R4-J1-PDC patient-derived pancreatic adenocarcinoma cell line growth inhibition [GQUAD]
Details: for IC50: curve of first compound; for viability, T/C: stronger effect = lower value; active means viability on the fitted dose curve at most 10% of control; inactive means the rest
How it was run: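 Tumor cells were grown as complex spheroids with HUVEC endothelial cells and mesenchymal stem cells as stroma. G-quadruplex stabilizers were combined with targeted agents over half-log dilutions from near the clinical Cmax, or from 10 microM.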

[1] = second compound 0.0316 µM, first compound 0.0316 µM
[2] = second compound 0.0316 µM, first compound 0.1 µM
[3] = second compound 0.0316 µM, first compound 0.316 µM
[4] = second compound 0.0316 µM, first compound 1 µM
[5] = second compound 0.0316 µM, first compound 3.16 µM
[6] = second compound 0.0316 µM, first compound 10 µM
[7] = second compound 0.1 µM, first compound 0.0316 µM
[8] = second compound 0.1 µM, first compound 0.1 µM
[9] = second compound 0.1 µM, first compound 0.316 µM
[10] = second compound 0.1 µM, first compound 1 µM
[11] = second compound 0.1 µM, first compound 3.16 µM
[12] = second compound 0.1 µM, first compound 10 µM
[13] = second compound 0.316 µM, first compound 0.0316 µM
[14] = second compound 0.316 µM, first compound 0.1 µM
[15] = second compound 0.316 µM, first compound 0.316 µM
[16] = second compound 0.316 µM, first compound 1 µM
[17] = second compound 0.316 µM, first compound 3.16 µM
[18] = second compound 0.316 µM, first compound 10 µM
[19] = second compound 1 µM, first compound 0.0316 µM
[20] = second compound 1 µM, first compound 0.1 µM
[21] = second compound 1 µM, first compound 0.316 µM
[22] = second compound 1 µM, first compound 1 µM
[23] = second compound 1 µM, first compound 3.16 µM
[24] = second compound 1 µM, first compound 10 µM
[25] = second compound 3.16 µM, first compound 0.0316 µM
[26] = second compound 3.16 µM, first compound 0.1 µM
[27] = second compound 3.16 µM, first compound 0.316 µM
[28] = second compound 3.16 µM, first compound 1 µM
[29] = second compound 3.16 µM, first compound 3.16 µM
[30] = second compound 3.16 µM, first compound 10 µM
[31] = second compound 10 µM, first compound 0.0316 µM
[32] = second compound 10 µM, first compound 0.1 µM
[33] = second compound 10 µM, first compound 0.316 µM
[34] = second compound 10 µM, first compound 1 µM
[35] = second compound 10 µM, first compound 3.16 µM
[36] = second compound 10 µM, first compound 10 µM
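Further: spheroids exposed to the agents for seven days before readout.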
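Wherever viability, T/C is given: percent viability relative to DMSO vehicle control wells taken as 100%.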

CC(=O)O[C@H]1C(=O)[C@@]2(C)[C@H]([C@H](OC(=O)c3ccccc3)[C@]3(O)C[C@H](OC(=O)[C@H](O)[C@@H](NC(=O)c4ccccc4)c4ccccc4)C(C)=C1C3(C)C)[C@]1(OC(C)=O)CO[C@@H]1C[C@@H]2O + Cc1cnc(CNC(=O)c2c(=O)c3ccc(N4CCCN(C)CC4)nc3n3c2sc2ccccc23)cn1
< 31.6 nM: IC50 (second compound 0.0316 µM) | IC50 (second compound 0.1 µM) | IC50 (second compound 0.316 µM) | IC50 (second compound 1 µM) | IC50 (second compound 3.16 µM) | IC50 (second compound 10 µM)
active: viability, T/C [1] 3.55% | viability, T/C [2] 2.41% | viability, T/C [3] 2.38% | viability, T/C [4] 2.61% | viability, T/C [5] 4.35% | viability, T/C [6] 6.47% | viability, T/C [7] 3.6% | viability, T/C [8] 2.87% | viability, T/C [9] 3.34% | viability, T/C [10] 3.44% | viability, T/C [11] 4.23% | viability, T/C [12] 5.96% | viability, T/C [13] 6.14% | viability, T/C [14] 5.32% | viability, T/C [15] 4.53% | viability, T/C [16] 4.82% | viability, T/C [17] 6.03% | viability, T/C [18] 6.11% | viability, T/C [19] 4.85% | viability, T/C [20] 3.94% | viability, T/C [21] 4.08% | viability, T/C [22] 3.75% | viability, T/C [23] 5.24% | viability, T/C [24] 5.33% | viability, T/C [25] 3.56% | viability, T/C [26] 2.87% | viability, T/C [27] 3.36% | viability, T/C [28] 2.75% | viability, T/C [29] 3.86% | viability, T/C [30] 3.56% | viability, T/C [31] 0.08% | viability, T/C [32] 0.11% | viability, T/C [33] 0.1% | viability, T/C [34] 0.09% | viability, T/C [35] 0.1% | viability, T/C [36] 0.11%

COc1cc(C2c3cc4c(cc3C(OC3OC5COC(C)OC5C(O)C3O)C3COC(=O)C23)OCO4)cc(OC)c1O (stereo not given) + Cc1cnc(CNC(=O)c2c(=O)c3ccc(N4CCCN(C)CC4)nc3n3c2sc2ccccc23)cn1
active: viability, T/C [4] 2.94% | viability, T/C [5] 2.18% | viability, T/C [6] 0.59% | viability, T/C [9] 8.71% | viability, T/C [10] 3.16% | viability, T/C [11] 1.36% | viability, T/C [12] 0.71% | viability, T/C [14] 9.3% | viability, T/C [15] 5.22% | viability, T/C [16] 3.25% | viability, T/C [17] 1.25% | viability, T/C [18] 1.38% | viability, T/C [19] 6.49% | viability, T/C [20] 6.05% | viability, T/C [21] 4.38% | viability, T/C [22] 2.66% | viability, T/C [23] 1.27% | viability, T/C [24] 0.48% | viability, T/C [25] 4.76% | viability, T/C [26] 4.96% | viability, T/C [27] 2.85% | viability, T/C [28] 0.6% | viability, T/C [29] 0.46% | viability, T/C [30] 0.09% | viability, T/C [31] 0.03% | viability, T/C [32] 0.07% | viability, T/C [33] 0.09% | viability, T/C [34] 0.06% | viability, T/C [35] 0.12% | viability, T/C [36] 0.12%
110 nM: IC50 (second compound 0.0316 µM)
< 31.6 nM: IC50 (second compound 0.1 µM) | IC50 (second compound 0.316 µM) | IC50 (second compound 1 µM) | IC50 (second compound 3.16 µM) | IC50 (second compound 10 µM)
inactive: viability, T/C [1] 88% | viability, T/C [2] 53.8% | viability, T/C [3] 10.1% | viability, T/C [7] 29.7% | viability, T/C [8] 19.7% | viability, T/C [13] 10.3%

COc1cccc2c1C(=O)c1c(O)c3c(c(O)c1C2=O)CC(O)(C(=O)CO)CC3OC1CC(N)C(O)C(C)O1 (stereo not given) + Cc1cnc(CNC(=O)c2c(=O)c3ccc(N4CCCN(C)CC4)nc3n3c2sc2ccccc23)cn1
inactive: viability, T/C [1] 43.6% | viability, T/C [7] 14.1%
< 31.6 nM: IC50 (second compound 0.0316 µM) | IC50 (second compound 0.1 µM) | IC50 (second compound 0.316 µM) | IC50 (second compound 1 µM) | IC50 (second compound 3.16 µM) | IC50 (second compound 10 µM)
active: viability, T/C [2] 6.62% | viability, T/C [3] 2.17% | viability, T/C [4] 0.54% | viability, T/C [5] 0.2% | viability, T/C [6] 0.39% | viability, T/C [8] 7.19% | viability, T/C [9] 2.36% | viability, T/C [10] 0.41% | viability, T/C [11] 0.24% | viability, T/C [12] 0.54% | viability, T/C [13] 8.14% | viability, T/C [14] 4.76% | viability, T/C [15] 1.77% | viability, T/C [16] 0.41% | viability, T/C [17] 0.17% | viability, T/C [18] 0.26% | viability, T/C [19] 4.98% | viability, T/C [20] 3.35% | viability, T/C [21] 1.44% | viability, T/C [22] 0.09% | viability, T/C [23] 0.13% | viability, T/C [24] 0.32% | viability, T/C [25] 3.68% | viability, T/C [26] 1.92% | viability, T/C [27] 0.11% | viability, T/C [28] 0.05% | viability, T/C [29] 0.1% | viability, T/C [30] 0.1% | viability, T/C [31] 0.03% | viability, T/C [32] 0.08% | viability, T/C [33] 0.1% | viability, T/C [34] 0.07% | viability, T/C [35] 0.16% | viability, T/C [36] 0.24%

Nc1ccn(C2OC(CO)C(O)C2(F)F)c(=O)n1 (stereo not given) + Cc1cnc(CNC(=O)c2c(=O)c3ccc(N4CCCN(C)CC4)nc3n3c2sc2ccccc23)cn1
active: viability, T/C [1] 2.51% | viability, T/C [2] 0.72% | viability, T/C [3] 0.68% | viability, T/C [4] 0.69% | viability, T/C [5] 0.58% | viability, T/C [6] 0.61% | viability, T/C [7] 4.19% | viability, T/C [8] 0.89% | viability, T/C [9] 0.87% | viability, T/C [10] 0.9% | viability, T/C [11] 0.77% | viability, T/C [12] 0.88% | viability, T/C [13] 5.63% | viability, T/C [14] 1.42% | viability, T/C [15] 1.15% | viability, T/C [16] 0.95% | viability, T/C [17] 1.35% | viability, T/C [18] 1.02% | viability, T/C [19] 3.58% | viability, T/C [20] 1.01% | viability, T/C [21] 0.82% | viability, T/C [22] 0.79% | viability, T/C [23] 0.88% | viability, T/C [24] 0.78% | viability, T/C [25] 2.86% | viability, T/C [26] 0.11% | viability, T/C [27] 0.1% | viability, T/C [28] 0.06% | viability, T/C [29] 0.32% | viability, T/C [30] 0.67% | viability, T/C [31] 0.04% | viability, T/C [32] 0.07% | viability, T/C [33] 0.09% | viability, T/C [34] 0.07% | viability, T/C [35] 0.92% | viability, T/C [36] 0.6%
< 31.6 nM: IC50 (second compound 0.0316 µM) | IC50 (second compound 0.1 µM) | IC50 (second compound 0.316 µM) | IC50 (second compound 1 µM) | IC50 (second compound 3.16 µM) | IC50 (second compound 10 µM)

O=c1[nH]cc(F)c(=O)[nH]1 + Cc1cnc(CNC(=O)c2c(=O)c3ccc(N4CCCN(C)CC4)nc3n3c2sc2ccccc23)cn1
active: viability, T/C [4] 6.62% | viability, T/C [5] 6.16% | viability, T/C [6] 7.17% | viability, T/C [11] 8.85% | viability, T/C [12] 9.1% | viability, T/C [19] 6.94% | viability, T/C [20] 8.36% | viability, T/C [21] 9.57% | viability, T/C [22] 9.08% | viability, T/C [23] 8.58% | viability, T/C [24] 8.28% | viability, T/C [25] 4.97% | viability, T/C [26] 5.62% | viability, T/C [27] 7.29% | viability, T/C [28] 6.64% | viability, T/C [29] 6.67% | viability, T/C [30] 8.36% | viability, T/C [31] 0.04% | viability, T/C [32] 0.08% | viability, T/C [33] 2.48% | viability, T/C [34] 0.28% | viability, T/C [35] 2.43% | viability, T/C [36] 0.18%
152 nM: IC50 (second compound 0.0316 µM)
inactive: viability, T/C [1] 110% | viability, T/C [2] 70.7% | viability, T/C [3] 13.4% | viability, T/C [7] 35.3% | viability, T/C [8] 38.2% | viability, T/C [9] 16.7% | viability, T/C [10] 9.09% | viability, T/C [13] 11% | viability, T/C [14] 14.4% | viability, T/C [15] 13.6% | viability, T/C [16] 10.8% | viability, T/C [17] 10.2% | viability, T/C [18] 12.7%
< 31.6 nM: IC50 (second compound 0.1 µM) | IC50 (second compound 0.316 µM) | IC50 (second compound 1 µM) | IC50 (second compound 3.16 µM) | IC50 (second compound 10 µM)
